Entries after “also recorded” stand apart in the source; their conditions may differ.
Tested on: RAW 264.7 cells
Assay: LPS-induced NO production (nitrite, Griess reaction) in mouse macrophages
Format: cell-based
Conditions: for effect on LPS-induced NO production: varying concentrations, added 1.5 h before, after or simultaneously with LPS
Experimental: As nitric oxide production is a useful marker of macrophage response to bacterial LPS, the in vitro model system is a valuable tool for examining the modulating effects of sophorolipids on LPS-induced macrophage responses under controlled conditions. Mouse macrophages (RAW 264.7, ATCC) were incubated in the presence of LPS (Salmonella typhimurium, Sigma #6511) (50 ng/ml, an optimal dose for inducing NO production), and varying concentrations of sophorolipids (SL, natural mixture), sophorolipid diethyl ester (E), and corresponding sophorolipid diacetate (K). Sophorolipids were added 1.5 hours before, 1.5 hours after, or simultaneously with LPS. Aliquots of culture supernatants were collected after 5 days and NO content was determined by measuring nitrite (modified Griess reaction). Briefly, triplicate 50 μl aliquots of the culture supernatant were mixed in wells of a 96-well microtiter plate with 100 μl of Griess reagent containing a 1:1 (vol/vol) mixture of 1% (wt/vol) sulfanilamide in 30% acetic acid and 0.5% (wt/vol) of N-(-1-Naphthyl)ethylenediamine dihydrochloride in 60% acetic acid. Chromophore generated by the reaction with nitrite was detected spectrophotometrically (550 nm) using a microtiterplate reader (ELx 800, BioTek Instruments, Winooski, Vt.). The concentration of nitrite was calculated by using calibration with known concentrations of NaNO2.
This in vitro model system made it possible to examine in detail the effects of sophorolipids on LPS induced NO production as a marker of the acute inflammatory pathway that leads to septic shock in vivo. NO production appeared to depend on the sequence of addition of sophorolipids relative to LPS. The in vitro effects were most pronounced when sophorolipids were introduced either before or simultaneously with LPS.

| SMILES | rating of the potency of inhibitory activities on LPS induced NO production (RAW 264.7 cells, LPS 50 ng/ml) | inhibition of LPS-induced NO production (plateau / maximum) (at 25 ng/ml, LPS 50 ng/ml, RAW 264.7 cells, supernatants after 5 days) | effect on LPS-induced NO production |
| --- | --- | --- | --- |
| CCOC(=O)CCCCCCC/C=C\CCCCCCC(C)O[C@@H]1O[C@H](CO)[C@@H](O)[C@H](O)[C@H]1O[C@@H]1O[C@H](CO)[C@@H](O)[C@H](O)[C@H]1O (relative stereo) [E, Ethyl 17-L-[(2′-O-β-D-glucopyranosyl-β-D-glucopyranosyl)-oxy]-cis-9-octadecenoate] | E>SL>K; also recorded: least inhibitory and the most variable effects | 60-65% | inhibited LPS-induced NO production in a dose- and time-dependent manner |
| CCOC(=O)CCCCCCC/C=C\CCCCCCC(C)O[C@@H]1O[C@H](COC(C)=O)[C@@H](O)[C@H](O)[C@H]1O[C@@H]1O[C@H](COC(C)=O)[C@@H](O)[C@H](O)[C@H]1O (relative stereo) [K, Ethyl 17-L[(2′-O-β-D glucopyranosyl-β-D-glucopyranosyl)-oxy]-cis-9-octadecenoate 6′,6″-diacetate] | E>SL>K | – | inhibited LPS-induced NO production in a dose- and time-dependent manner |
